Converted amounts (≈) assume the structure as drawn. Like-named read-outs stand apart in the source and are kept apart here.
Tests used:
[1] = tested on: Arterial blood pressure (ABP); experiment: In vivo hypotensive activity: arterial blood pressure (ABP) in anesthetized guinea pig
Description: (§1) The trachea of anesthetized guinea pig was cannulated and the ITP recorded on a polygraph under artificial ventilation. Arterial blood pressure (ABP; reflecting hypotensive activity) was also measured during the experiment. Either intravenous or intraduodenal routes of administration are used. […] The ratio of hypotensive ED20 /bronchodilating ED50 reflects an assessment of the separation of desirable bronchodilator activity from undesirable cardiovascular (hypotensive) effect in the compounds.

[2] = tested on: Tracheal chains of guinea pig; experiment: In vitro bronchodilator activity (guinea pig tracheal chain relaxation, Magnus method); assay type: cell-based; conditions: Cavia porcellus, read-out: EC50 (concentration producing a relaxation which is 50% of the maximum response to 0.1 mcg./ml. of isoproterenol), relative to maximum response to 0.1 mcg./ml. isoproterenol
Description: Tracheal chains of guinea pig were prepared by the method of A. Akcasu, Arch. Int. Pharmacodyn. […] The response to each test compound was recorded by the Magnus method and expressed as a percentage of the maximum response obtained with 0.1 mcg./ml. of isoproterenol prior to each experiment.

[3] = tested on: intratracheal pressure (ITP) in the guinea pig; experiment: In vivo bronchodilator activity: decrease in intratracheal pressure (ITP) in anesthetized guinea pig; conditions: for ED50: Cavia porcellus, read-out: ITP ED50 (dose resulting in a 50% decrease in intratracheal pressure)
Description: as §1

EC50 [2] | Structure (SMILES) | ABP ED20 (dose which reduces arterial blood pressure by 20%) ([1]; intravenous) | ED50 ([3]; intravenous) | ED50 ([3]; intraduodenal) | Ratio ABP/ITP (hypotensive ED20/bronchodilating ED50) ([3]; intraduodenal) | Ratio ABP/ITP (hypotensive ED20/bronchodilating ED50) ([3]; intravenous) | ABP ED20 (dose which reduces arterial blood pressure by 20%) ([1]; intraduodenal)
 | Cn1c(=O)c2[nH]cnc2n(C)c1=O [Aminophylline, reference compound] | 1.4 mg/kg |  |  |  |  | 
0.45 µg/mL (≈ 1.77 µM) | Nc1nc(Cl)nc2c1ncn2C1CCCCO1 (centres unmarked) [Example 1, 2-Chloro-9-(tetrahydropyran-2-yl)-9H-adenine] | > 1 mg/kg | 0.23 mg/kg |  |  |  | 
> 3 µg/mL | COc1nc(N)c2ncn(C3CCCCO3)c2n1 (centres unmarked) [Example 2, 2-Methoxy-9-(tetrahydropyran-2-yl)-9H-adenine] | > 1 mg/kg | 2.2 mg/kg |  |  |  | 
0.17 µg/mL (≈ 0.613 µM) | CCCOc1nc(N)c2ncn(C3CCCCO3)c2n1 (centres unmarked) [Example 3, 2-n-Propoxy-9-(tetrahydropyran-2-yl)-9H-adenine] | 1.9 mg/kg | 0.26 mg/kg | 1.4 mg/kg | 9.6 | 7.3 | 13.5 mg/kg
